Earlier results, collected in patent US10858526B2, “Water-based ink composition for ink jet recording and coloring material liquid” (Seiko Epson Corporation, priority 2017, dated 2020).

Conditions: water-soluble organic solvent

CCCC(O)CCO (centres unmarked) [1,3-hexanediol]
water-octanol partition coefficient (log P): 0.28

CCCCOCCOCCO [butyl diglycol]
water-octanol partition coefficient (log P): 0.56
